Measured values as given in patent publication US20240304840A1 (priority 2023, published 2024).

Conditions: 1 mAh H-cell, 1 M sodium chloride, Selemion AMVN, about 20 days
From the text: An H-cell can be used for the coulombic efficiency tests. […] The electrolyte can be dissolved in about 1 M sodium chloride for electrochemical stability testing. The moles of anolyte and catholyte molecules present can be controlled to achieve the desired capacity of 1 mAh. […] Selemion™ anion exchange membrane (AMVN) can be used for the H-cells.

In the case of `C[N+](C)(C)CCC[N+](C)(C)CCCN1C(=O)c2ccc3c4ccc5c6c(ccc(c7ccc(c2c37)C1=O)c64)C(=O)N(CCC[N+](C)(C)CCC[N+](C)(C)C)C5=O` [PDI-tetraammonium-Cl4], the “crossover in H-cell” value is reported as “almost no crossover”.
